From the NIST ThermoML archive (doi:10.1021/je9001575)

Experiment: molar heat capacity at constant volume
Conditions: Liquid, Vacuum adiabatic calorimetry

CC(C)C [2-methylpropane]
Conditions	molar heat capacity at constant volume [J/K/mol]
119.82 K, 6500 kPa	71.22
122.33 K, 10732 kPa	71.61
124.97 K, 15325 kPa	72.14
127.43 K, 20667 kPa	72.63
130.02 K, 25536 kPa	73.32
132.43 K, 28973 kPa	73.82
141.37 K, 4922 kPa	73.32
143.72 K, 9088 kPa	73.74
146.26 K, 13401 kPa	74.25
148.59 K, 17196 kPa	74.72
151.09 K, 21305 kPa	75.18
153.38 K, 24872 kPa	75.69
155.84 K, 28673 kPa	76.28
162.3 K, 4549 kPa	75.71
164.6 K, 8126 kPa	76.26
167.03 K, 11587 kPa	76.59
169.29 K, 14798 kPa	77.08
171.69 K, 18296 kPa	77.43
173.93 K, 21461 kPa	78.06
176.29 K, 24825 kPa	78.43
178.5 K, 27869 kPa	78.99
180.83 K, 31062 kPa	79.8
183.24 K, 4049 kPa	78.07
185.45 K, 6869 kPa	78.63
187.83 K, 9994 kPa	79.02
190.01 K, 12743 kPa	79.62
192.38 K, 15769 kPa	79.81
194.51 K, 18415 kPa	80.61
196.86 K, 21369 kPa	81.16
198.97 K, 23939 kPa	81.69
201.31 K, 26822 kPa	81.98
203.38 K, 29282 kPa	82.49
203.62 K, 3700 kPa	80.96
205.69 K, 32085 kPa	83.13
205.82 K, 6192 kPa	81.19
208.09 K, 8785 kPa	82.04
210.26 K, 11205 kPa	82.36
212.53 K, 13758 kPa	83
214.66 K, 16095 kPa	83.42
216.92 K, 18597 kPa	83.89
219.02 K, 20866 kPa	84.44
221.26 K, 23313 kPa	85
223.33 K, 25507 kPa	85.63
224.21 K, 3209 kPa	84.09
225.57 K, 27916 kPa	85.85
226.5 K, 5490 kPa	84.53
227.6 K, 30036 kPa	86.44
228.59 K, 7563 kPa	85.18
229.83 K, 32388 kPa	86.73
230.86 K, 9783 kPa	85.57
232.95 K, 11833 kPa	86.15
235.18 K, 13991 kPa	86.65
237.26 K, 16001 kPa	87.31
239.46 K, 18103 kPa	87.79
241.54 K, 20084 kPa	88.35
243.72 K, 22131 kPa	88.62
244.91 K, 2940 kPa	87.7
245.77 K, 24074 kPa	89.4
246.88 K, 4626 kPa	88.13
247.92 K, 26062 kPa	89.81
249.24 K, 6667 kPa	88.84
249.98 K, 27977 kPa	90.18
251.17 K, 8311 kPa	89.23
252.11 K, 29918 kPa	91.01
253.54 K, 10334 kPa	89.74
254.15 K, 31797 kPa	91.18
255.44 K, 11931 kPa	90.33
257.8 K, 13926 kPa	90.58
259.68 K, 15488 kPa	91.3
262.03 K, 17452 kPa	91.98
263.88 K, 18974 kPa	92.4
264.62 K, 2580 kPa	91.58
266.23 K, 20919 kPa	93.11
266.61 K, 4054 kPa	92.14
268.06 K, 22404 kPa	93.8
268.91 K, 5781 kPa	92.42
270.4 K, 24318 kPa	94.15
270.88 K, 7235 kPa	92.99
272.22 K, 25772 kPa	94.9
273.17 K, 8940 kPa	93.07
274.56 K, 27659 kPa	95.07
275.12 K, 10363 kPa	94.06
276.36 K, 29087 kPa	95.35
277.4 K, 12047 kPa	94.2
278.68 K, 30942 kPa	95.99
